Laboratory results from patent US11738097B2, “Curcuminoid chemotherapeutic drug carrier composition” (Imam Abdulrahman Bin Faisal University, priority 2018, dated 2023).

How the values were obtained:
Cell viability MTT assay = assay type: cell-based, human; details: human, MCF7 cells, maintained throughout the different concentrations (10-100 μg/ml), curcumin stock 390 μg/ml
Experimental: (§1) Materials and Methods/Cell cultures: In this study, a human mammary adenocarcinoma cell line, MCF7, was used for in vitro testing. MCF7 cells were maintained in DMEM (Dulbecco's Modified Eagle Medium) (Gibco, life technologies) supplemented with 10% heat inactivated fetal bovine serum (HI-FBS) (Gibco, life technology), 1% Penicillin Streptomycin (100×-Gibco, life technology), and 1% MEM NEAA (MEM non-essential amino acids) (100×-Gibco, life technology). Cells were kept in a humidified incubator at 37° C. with 5% CO2. For the experimental setup, MCF7 cells were seeded on a 96-well plate at a density of 10,000 cells/well. On the next day, cells were shifted to the starve media (0.5% HI-FBS containing media) for 24 h before treatment. […]
(§2) Cell viability MTT Assay: The viability of cells was tested using 3-(4,5-dimethylthiazol-2-yl)-2,5-diphenyltetrazolium bromide (MTT) assay. […] The change in color intensity was measured at 570 nm wavelength using SYNERGY-neo2 BioTek ELISA reader. […] The reading of each triplicate was averaged and subtracted from the averaged MTT background control reading. […]
(§3) To investigate the cytotoxic effects of curcumin-loaded/Fe2O3 impregnated mesocellular foam silica nanoparticles, the inventors assessed cell viability using the MTT assay on MCF7 cells. […]

MCF7 cells = assay: Cell viability MTT assay; assay type: cell-based, human; details: 10, 20, 40, 80, 100 μg/ml, 24 h
Experimental: as §1, §2, §3

With `COc1cc(/C=C/C(=O)CC(=O)/C=C/c2ccc(O)c(OC)c2)ccc1O` [Curcumin] the viability at 24 h (Cell viability MTT assay) was 66.6% and the “effect on cell viability (in words)” value (MCF7 cells) was “significantly reduced cell viability”.
